Measured values taken from patent US20260090983A1, “PARENTERAL NUTRITION FORMULATION” (Baxter International Inc., priority 2018, published 2026).
“Also recorded” adds a separate entry of the source. Read-outs that look alike come from different tables or passages of the source.

Legend:
[1] = test system: male Sprague-Dawley rats with steatosis, induced by choline and methionine deficient (MCD) diet; test: Histopathological grading of hepatocellular vacuolation of the liver; assay type: in vivo; details: for histopathological examination of the liver, vacuolation (FIG. 4A): Step #2
Description: A part of the liver was preserved in buffered formalin, the infusion sites and the sampled macroscopic lesions were trimmed according to the RITA guidelines, where applicable (Ruchl-Fehlert et al., Exp Toxic Pathol 2003; 5 5, 91-106), embedded in paraffin wax, sectioned at a thickness of approximately four microns and stained with hematoxylin-eosin. The frozen liver sample was cryosectioned in slides of approximately five microns and stained by Oil Red O. Tissue processing was performed at Citoxlab, France.
A microscopic examination was performed on both slides (hematoxylin eosin and Oil Red O) of the liver, the infusion sites and the macroscopic lesions from all animals of the study. Peer review was performed on at least 30% of the animals from the high-dose group and on an adequate number of slides from identified target organs to confirm that findings recorded by the Study Pathologist were consistent and accurate.
Liver samples taken after 8 and 15 days, respectively, were examined as described above and assigned to five grades of hepatocellular vacuolation. Vacuolation was generally diffuse and affected all regions for Grade 5. Periportal areas were lesser affected and the vacuoles were smaller in size for lower grades. Grades have been assigned according to the following definition:

[2] = for Stability upon sterilization (Comment): heat sterilization; for stability of the lipid emulsions during sterilization (heat), in words: lipid emulsions prepared as in Example 1 containing the choline derivative
Description: The choline derivative supplemented “LE” lipid emulsions were prepared as follows. In a first step, raw phases are heated up. In case of the oil phase, soybean and olive oils and egg phosphatide as well as DHA and ARA oils and vitamin E in case of Step #3 experiments are heated in an inox beaker to 75° C. under N2 protection while continuously agitating using an ULTRA TURRAX®. The aqueous phase was prepared by mixing glycerol, sodium oleate and Milli-Q water and constantly heated in an inox beaker to about 75° C. under N2 protection. Where needed, the choline derivative is added under constant agitation. In a second step, the pre-emulsion is prepared by adding the oily phase to the aqueous phase using a peristaltic pump under continuous agitation and then transferred to a high shear inline disperser (e.g. DISPAX REACTOR® DR). The receiving vessel is closed and flushed with nitrogen. In a third step the pre-emulsion is homogenized by passing it several times through a high-pressure homogenizer at 600 bar and a temperature of about 50° C., under a N2 atmosphere.
The emulsion is then adjusted to the required volume (2 L) with Milli-Q water and cooled down to a temperature of approximately 18 to 28° C., preferably 20° C. to 25° C. The pH is adjusted to a range of from 7.8 to 8.8, preferably to about 8.3 to 8.8 with 0.IN NaOH. The emulsion is filtered with a 4.5 μm filter and transferred in 100 mL bags, which are then overpouched, making use of an oxygen absorber/indicator, for later use. The lipid emulsion is then autoclaved at 121° C. to achieve a F0 of at least 15 minutes.

[3] = test system: male Sprague-Dawley rats with steatosis, induced by choline and methionine deficient (MCD) diet; test: Aminotransferase (ALT) activity in plasma during parenteral nutrition; assay type: in vivo; details: for development of ALT activity from day 5 to day 17 (FIG. 2): Step #2, LE 10% without or with choline derivative "high" 31 mmol/L, plasma after 5 and 17 days of parenteral nutrition
Description: ALT activity is determined by a modification recommended by the International Federation of Clinical Chemistry (IFCC), see also Example 2. ALT catalyzes the reaction of alpha-ketoglutarate with L-alanine to form L-glutamate and pyruvate. Under the action of LDH, pyruvate converts to lactate, and NADH is converted to NAD. The decrease in absorbance of NADH, measured at 340 nm (secondary wavelength is 700 nm), is directly proportional to the serum activity of ALT. It is a kinetic reaction. In general, serum is used for analysis. The serum is separated from the cells within 2 hours of collection and stored at -70° C. until assayed. Monitoring the ALT activity over time in an animal model is used herein as one straightforward and conclusive way to determine the efficacy of GPC in treating liver disease, specifically liver damage caused by a choline-deficient diet (Examples 1 and 2, FIGS. 2 and 3). The effects of GPC as well as of the combination of DHA, ARA and GPC were investigated in a sick animal model, wherein male Sprague-Dawley rats with steatosis, induced by choline and methionine deficient (MCD) diet (S SNIFF MCD pelleted choline/methionine deficient diet (SSNIFF Spezialdiäten GmbH, Soest, Germany, Product No. E15653-94)) were kept on parenteral nutrition. Steatosis was confirmed in the respective groups by histopathology (Example 3). Parenteral nutrition started after 14 days under MCD diet. First measurements were done after 5 days of parenteral nutrition, followed by measurements after 9 and 17 days. The daily lipid uptake was 2.31 g/kg/d. The rats were split into several groups as set forth below in Table I. Two groups served as control groups, wherein a first group was treated with saline solution (0.90% w/v of NaCl in water for injection). A second group received a lipid emulsion (“LE 10%”) containing refined olive oil (80.0 g/L) and refined soybean oil (20.0 g/L) in water for injection, pH 6-8; LE 10% further contained egg lecithin (6.0 g/L), glycerol (11.25 g/L) and sodium oleate (0.15 g/L). LE 10% contained 100 g/L lipids. […] CDP-choline (prepared by fermentation) was from TCI Europe N.V. (Antwerp, Belgium). […] DHA (from algae, Schizochytrium sp.) and ARA (from fungi, Mortierella alpina) were purchased from BASF AG, Germany. Vitamin E was purchased from […].) […] As described before, liver damage (cholestasis) may be determined by increased aminotransferase levels. ALT activity was determined with an AD VIA 1800 blood biochemistry analyzer/IFCC modified (SIEMENS®) according to standard protocols such as described before.

[4] = test system: male Sprague-Dawley rats with steatosis, induced by choline and methionine deficient (MCD) diet; test: Development of liver weight versus body weight; assay type: in vivo; details: LE 10% without or with choline derivative "high": 31 mmol/L
Source text: The effects of GPC as well as of the combination of DHA, ARA and GPC were investigated in a sick animal model, wherein male Sprague-Dawley rats with steatosis, induced by choline and methionine deficient (MCD) diet (S SNIFF MCD pelleted choline/methionine deficient diet (SSNIFF Spezialdiäten GmbH, Soest, Germany, Product No. E15653-94)) were kept on parenteral nutrition.
Parenteral nutrition started after 14 days under MCD diet. First measurements were done after 5 days of parenteral nutrition, followed by measurements after 9 and 17 days. The daily lipid uptake was 2.31 g/kg/d. The rats were split into several groups as set forth below in Table I.
The study groups as described in Example 1 were further evaluated with regard to the development of liver weight versus body weight. An increase in liver weight which is not proportional to the increase of body weight is typical for the development of liver damage, specifically steatosis, as described before.

[5] = LE 10% with choline derivative alone (no DHA, ARA), high (31 mmol/L) and low (15 mmol/L) concentration

C[N+](C)(C)CCOP(=O)(O)OP(=O)([O-])OC[C@H]1O[C@@H](n2ccc(N)nc2=O)[C@H](O)[C@@H]1O [CDP-choline, cytidine diphosphate-choline, reference compound]
histopathological examination of the liver, vacuolation (FIG. 4A) ([1]; LE 10% with choline derivative alone, low concentration, 15 mmol/L): also had an effect
Stability upon sterilization (Comment) ([2]; Concentration 30 mmol/L, lipid emulsion tested LE 10 %): Phase separation
stability of the lipid emulsions during sterilization (heat), in words [2]: phase separation of the lipid emulsions during sterilization
development of ALT activity from day 5 to day 17 (FIG. 2) [3]: neither significantly increases or decreases
liver to body weight ratio in percent (FIG. 5) [4]: reduction of the ratio

C[N+](C)(C)CCO.[Cl-] [Choline Chloride, (2-Hydroxyethyl)trimethylammonium chloride, reference compound]
histopathological examination of the liver, vacuolation (FIG. 4A) [1, 5]: fared better than those with only saline or lipid emulsion without any choline derivative
Stability upon sterilization (Comment) ([2]; Concentration 15 mmol/L, lipid emulsions tested LE 10, 13, 20 %): Phase separation
stability of the lipid emulsions during sterilization (heat), in words [2]: phase separation of the lipid emulsions during sterilization
development of ALT activity from day 5 to day 17 (FIG. 2) [3]: neither significantly increases or decreases
liver to body weight ratio in percent (FIG. 5) [4]: reduction of the ratio

C[N+](C)(C)CCOP(=O)([O-])OC[C@H](O)CO [GPC, glycerophosphocholine]
liver status of the animal, in words ([1]; After 15 days into parenteral nutrition, Step #3, LE 13%, versus saline solution): clear and significant improvement of the liver status
Vacuolation; hepatocellular, Grade 2, number of animals ([1]; Day 8, Step #3, phytosterol depleted LE 13%, GPC 40 mmol/L where present, 5 animals per group, Grade 2 = slight/few/small vacuoles): one
Vacuolation; hepatocellular, Grade 3, number of animals ([1]; Day 8, Step #3, phytosterol depleted LE 13%, GPC 40 mmol/L where present, 5 animals per group, Grade 3 = moderate vacuoles): one
Vacuolation; hepatocellular, Grade 4, number of animals ([1]; Day 8, Step #3, phytosterol depleted LE 13%, GPC 40 mmol/L where present, 5 animals per group, Grade 4 = marked/many/large vacuoles): Three
Vacuolation; hepatocellular, Grade 5, number of animals ([1]; Day 8, Step #3, phytosterol depleted LE 13%, GPC 40 mmol/L where present, 5 animals per group, Grade 5 = severe, diffuse, all liver regions): none
histopathological examination of the liver, vacuolation (FIG. 4A) [1, 5]: most significant impact; also recorded: significantly better
Stability upon sterilization (Comment) ([2]; Concentration 30 mmol/L, lipid emulsions tested LE 10, 20 %): Stable emulsion
stability of the lipid emulsions during sterilization (heat), in words [2]: remained stable
development of ALT activity from day 5 to day 17 (FIG. 2) [3]: clear drop in ALT activity; also recorded: most pronounced
liver to body weight ratio in percent (FIG. 5) [4]: most pronounced reduction of the ratio

phosphatidylcholine
development of ALT activity from day 5 to day 17 (FIG. 2) [3]: does not seem to have any effect
ALT activity, change in percent of the normal value for plasma (FIG. 3) ([3]; Step #3, LE 10% normal phytosterol without GPC, LE 10% + GPC 40 mmol/L, LE 13% reduced phytosterol + GPC 40 mmol/L): does not seem to have any effect
liver to body weight ratio in percent (FIG. 5) [4]: does not seem to have any effect
